For data set [1], the system named is CMhi and EMhi CD8+ T cells. Description: Daunorubicin-induced apoptosis of sorted CM and EM subsets, Annexin V/DAPI. The data set is classed as cell-based, human. The text has this: CMhi and EMhi and their non-effluxing IL-18Rα^lo/neg counterparts (CMlo and EMlo) were isolated using negative immunomagnetic selection of CD8^+ T cells with biotinylated antibodies to non-CD8^+ T cells, followed by surface labeling with fluorochrome-conjugated streptavidin to identify non-CD8^+ T cells, CD95, CD62L and IL-18Rα and sorting on a BD FacsARIA flow sorter. CM and EM CD8^+ T cells were defined as streptavidin^−/CD95^+/CD62L^+ or streptavidin^−/CD95^+/CD62L^−, respectively. CMhi and EMhi were defined by high expression of IL-18Rα. Effluxing and non-effluxing CM and EM subsets were cultured for 44 hours in the presence or absence of daunorubicin (an anthracycline chemotherapeutic agent, effluxed by the ABC-B1 cotransporter, MDR-1), with or without MDR-1 blockade with the peripheral benzodiazepine receptor antagonist, PK11195. Cultures were harvested, washed twice with cold PBS and stained with Annexin V and DAPI before analysis.

Data set [2] has as its system CM and EM CD8+ T lymphocytes. Description: Rh123 efflux assay with or without vinblastine, flow cytometry. The data set is classed as cell-based, human. The settings on record: PBMC loaded with 10 μg/ml Rh123, efflux 30 minutes at 37° C. (In general: Flow cytometry measures light scatter and fluorescence of single cells or particles in a stream.)
Protocol: PBMC were separated from fresh peripheral blood by density gradient centrifugation, washed in RPMI 1640/10% bovine serum albumin (herein known as efflux buffer) and resuspended at 1×10^6/ml in ice cold efflux buffer with 10 μg/ml Rh123. PBMC were incubated for 30 minutes on ice before washing three times in ice cold efflux buffer and resuspending in pre-warmed efflux buffer, with or without vinblastine, for 30 minutes at 37° C. At 30 minutes, PBMC were washed once in ice cold PBS/0.2% BSA (FACS buffer) and labeled with antibodies to CD4, CD16, TCRγδ, Vα24, CD3, CD8α, CD95, CD62L, CD161 and IL-18Rα for 20 minutes on ice. After washing in ice cold FACS buffer, samples were analyzed on a BD FacsARIA flow cytometer.
CM and EM subsets were identified as CD62L^+ or CD62L^− events, respectively, in the CD4^−/CD16^−/TCRγδ^−/Vα24^−/CD3^+/CD8^+/CD95^+ population. Rh123 fluorescence was identified with appropriate compensation and a 530/30 emission filter after laser excitation at 488 nm. Rh123-effluxing events were defined as those with fluorescence lower than the mean fluorescence intensity identified after culture in the presence of vinblastine efflux blockade.
Data set [3] addresses MDR-1 (Homo sapiens, UniProt P08183). Particulars: daunorubicin loaded at 2.5 μM, efflux 1 hour at 37° C.; vinblastine 25 μM; PK11195 and cyclosporine A data not shown.

MDR-1, sequence (P08183 whole entry): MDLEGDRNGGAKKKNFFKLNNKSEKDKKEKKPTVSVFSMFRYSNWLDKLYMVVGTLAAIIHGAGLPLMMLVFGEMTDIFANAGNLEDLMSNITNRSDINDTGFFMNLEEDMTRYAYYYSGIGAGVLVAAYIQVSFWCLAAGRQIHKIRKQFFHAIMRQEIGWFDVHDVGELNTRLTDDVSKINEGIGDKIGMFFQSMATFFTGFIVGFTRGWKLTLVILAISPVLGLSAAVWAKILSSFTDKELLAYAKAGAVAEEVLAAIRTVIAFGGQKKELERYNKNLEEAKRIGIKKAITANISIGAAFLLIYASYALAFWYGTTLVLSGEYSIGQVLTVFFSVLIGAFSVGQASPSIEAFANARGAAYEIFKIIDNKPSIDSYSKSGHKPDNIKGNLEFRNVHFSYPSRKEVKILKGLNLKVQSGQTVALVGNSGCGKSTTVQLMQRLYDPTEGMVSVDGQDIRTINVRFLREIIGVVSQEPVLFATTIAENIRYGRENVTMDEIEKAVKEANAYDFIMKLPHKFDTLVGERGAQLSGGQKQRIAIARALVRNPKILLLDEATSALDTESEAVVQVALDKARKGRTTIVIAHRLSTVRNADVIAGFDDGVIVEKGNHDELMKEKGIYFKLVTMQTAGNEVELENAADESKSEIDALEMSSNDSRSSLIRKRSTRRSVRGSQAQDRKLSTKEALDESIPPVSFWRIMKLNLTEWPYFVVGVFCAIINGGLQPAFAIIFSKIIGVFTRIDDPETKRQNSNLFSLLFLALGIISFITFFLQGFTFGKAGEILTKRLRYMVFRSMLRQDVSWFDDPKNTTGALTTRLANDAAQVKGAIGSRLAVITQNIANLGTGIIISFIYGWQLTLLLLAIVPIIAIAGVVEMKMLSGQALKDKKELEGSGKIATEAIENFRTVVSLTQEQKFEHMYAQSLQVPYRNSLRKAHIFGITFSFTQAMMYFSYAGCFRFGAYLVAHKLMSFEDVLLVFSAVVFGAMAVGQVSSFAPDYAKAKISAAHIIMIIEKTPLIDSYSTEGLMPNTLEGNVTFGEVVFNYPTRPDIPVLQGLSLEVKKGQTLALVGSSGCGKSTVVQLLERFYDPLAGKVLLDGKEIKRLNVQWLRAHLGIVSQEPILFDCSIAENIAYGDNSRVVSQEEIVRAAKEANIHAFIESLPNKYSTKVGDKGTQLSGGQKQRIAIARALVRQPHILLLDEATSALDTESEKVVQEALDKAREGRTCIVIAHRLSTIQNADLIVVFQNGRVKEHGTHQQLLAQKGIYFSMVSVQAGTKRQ

With `CCC(C)N(C)C(=O)c1cc2ccccc2c(-c2ccccc2Cl)n1` (centres unmarked) [PK11195], in data set [1] (PK11195 without daunorubicin, 44 hours culture), the “Viability of subsets cultured with PK11195 alone” value is “does not impair viability”. The “Cell death of CMhi and EMhi on MDR-1 inhibition during daunorubicin culture” value in data set [1] (daunorubicin with PK11195, 44 hours culture) is on record as “increased cell death”.
For the molecule `COc1cccc2c1C(=O)c1c(O)c3c(c(O)c1C2=O)C[C@@](O)(C(C)=O)C[C@@H]3O[C@H]1C[C@H](N)[C@H](O)[C@H](C)O1` [daunorubicin], the “Apoptosis of CMhi and EMhi induced by culture with daunorubicin” value in data set [1] (daunorubicin 0.1 uM, 44 hours culture) is reported as “resistant to apoptosis”.
On to `CC[C@]1(O)C[C@@H]2CN(CCc3c([nH]c4ccccc34)[C@@](C(=O)OC)(c3cc4c(cc3OC)N(C)[C@H]3[C@@](O)(C(=O)OC)[C@H](OC(C)=O)[C@]5(CC)C=CCN6CC[C@]43[C@@H]65)C2)C1` [vinblastine], for which the “Rh123 efflux in the presence of vinblastine” value in data set [2] was “blocked”. In data set [3], the “Inhibition of daunorubicin efflux from CMhi and EMhi” value is given as “inhibition of efflux”.

The values are drawn from patent US10653756B2, “Identification of CD8+ T cells that are CD161hi and/or IL18R(α)hi and have rapid drug efflux capacity” (FRED HUTCHINSON CANCER RESEARCH CENTER, priority 2008, dated 2020).
